Measured values as given in patent US20160153052A1, “MARKER TO PREDICT AND MONITOR RESPONSE TO AURORA KINASE B INHIBITOR THERAPY” (AbbVie Inc., priority 2014, published 2016).

Key:
[1] = system: OCI-AML2 cells; test: Drug sensitivity of OCI-AML2 cells after p16 shRNA knockdown; format: cell-based; details: p16 shRNA versus control shRNA, mimics CDKN2A deletion (FIG. 7)
Protocol: OCI AML2 cells were infected with control or three p16 shRNA from Sigma (MO). Infected cells were selected with 1 μM puromycin. After selection, cells were used in drug treatment experiments. All cells were maintained at 37° C. in 5% CO2.
One gene product of the CDKN2A locus is p16. Therefore shRNA was used to decrease p16 expression to mimic a situation of CDKN2A deletion. […] Given ABT-348 is a dual inhibitor of VEGF and Aurora kinase B inhibitors, ABT-869, which inhibits VEGF but not Aurora kinase B inhibitors was included to confirm the effect was specific to Aurora kinase B inhibitors inhibition.

[2] = system: hematologic malignancies; test: Phase 1 clinical trial of ABT-348 in subjects with hematologic malignancies, CDKN2A status of objective responders; format: in vivo, human; details: three patients assessed had deletion of CDKN2A (FIG. 2)
Description: Three patients assessed had deletion of CDKN2A.

[3] = system: cycling cells in blood of patients; test: Flow cytometry of patient blood, pharmacodynamic activity (≧4N cells); format: in vivo, human; details: patients treated with ABT-348; associated with percentage of cycling cells at baseline (FIG. 3)
Protocol: Blood of patients was added to lyse fix buffer (BD Biosciences). After lysis of red blood cells, the sample was washed, and permeabilized using Phosflow Perm/wash buffer (BD Biosciences). The sample was incubated for 15 minutes with DAPI (75 ng/mL) before analyzing on a flow cytometer.

[4] = system: panel of cell lines with and without CDKN2A deletion; test: Sensitivity to Aurora kinase inhibitors in a panel of cell lines with and without CDKN2A deletion; format: cell-based; details: cell line panel (FIG. 4 bottom left, FIG. 6)
Protocol: AML cell lines were obtained from the American Type Culture Collection (ATCC; Manassas, Va.) and propagated according to ATCC recommendations.
Based on observation, it was hypothesized that patient samples with a high proportion of cells in G2/M (ie. cycling) would be sensitive to ABT-348. Therefore, a database search was performed to identify genotypes likely to overexpress Aurora kinase B given its expression is increased in M phase of cell cycle (top left). […] Data from Cancer Cell Line Encyclopedia (CCLE) supported this hypothesis (top right). Sensitivity to Aurora kinase inhibitors including ABT-348 was assessed in a panel of cell lines with and without this deletion (bottom left). […] CDKN2A status was then assessed by in situ hybridization in patient samples from ABT-348 trials. An example from one patient is shown (bottom right).

[5] = system: solid tumors
Description: The Y axis list best % tumor change from baseline and the X axis are % tumor cells assessed with a deletion in CDKN2A. The hashed line indicates a putative cutoff separating patients with deletion from those without. […] Threshold to define deletion is <1.2 copies.

Compound | sensitivity of OCI-AML2 cells after p16 knockdown (silencing p16 sensitizes) [1] | objective response in patients with deletion of CDKN2A [2] | pharmacodynamics activity [3] | sensitivity of cell lines with CDKN2A deletion versus without [4] | discontinuation due to toxicity ([5]; human, in vivo) | tumor response in patients without a CDKN2A deletion ([5]; solid tumors, patients without deletion (FIG. 1)) | clinical response in patients with a deletion of CDKN2A ([5]; solid tumors, three patients showed a deletion of CDKN2A, best % tumor change from baseline (FIG. 1))
Nc1ncc(-c2cnn(CCO)c2)c2scc(-c3ccc(NC(=O)Nc4cccc(F)c4)cc3)c12 [ABT-348, 1-(4-(4-amino-7-(1-(2-hydroxyethyl)-1H-pyrazol-4-yl)thieno[3,2-c]pyridin-3-yl)phenyl)-3-(3-fluorophenyl)urea] | more sensitive | One patient obtained a complete response, and the others had a partial response | increase in the number of ≧4N cells | more sensitive | the third discontinued due to toxicity | No patient without a deletion demonstrated a tumor response | Two of these patients had a clinical response
Cc1ccc(F)c(NC(=O)Nc2ccc(-c3cccc4[nH]nc(N)c34)cc2)c1 [ABT-869] | not | – | – | – | – | – | –
CCN(CCCOc1ccc2c(Nc3cc(CC(=O)Nc4cccc(F)c4)n[nH]3)ncnc2c1)CCOP(=O)(O)O [AZD-1152, 2-[[3-({4-[(5-{2-[(3-Fluorophenyl)amino]-2-oxoethyl}-1H-pyrazol-3-yl)amino]-quinazolin-7-yl}oxy)propylliethyl)amino]ethyl dihydrogen phosphate] | more sensitive | – | – | – | – | – | –
